# Measurements reported in patent publication US9018209B2, “Compounds and methods for the treatment of viruses and cancer” (Yale University, priority 2005, dated 2015).
# Like-named read-outs stand apart in the source and are kept apart here.
# How the values were obtained:
# IIIB strain of HIV-1 = assay: Anti-HIV-1 activity: protection of infected MT-2 cells, MTT colorimetric method; format: cell-based; conditions: for fold lower potency (higher EC50) than the corresponding DMA ether: Table 2b compounds
# MT-2 human T-cells = assay: Cytotoxicity: inhibition of MT-2 cell growth; format: cell-based
# Text: The preparation of the analogues 4a-h involved the reaction between 2-bromothiazole 1 with the corresponding 5-amino-2-R-phenol 2, followed by reaction with 4-bromo-2-methyl-2-butene in presence of Cs2CO3 as a base (Scheme 1; see Table 1 for antiviral activities (EC50) and cytotoxicities (IC50) of these compounds, as determined using human MT-2 cells infected with IIIB strain of HIV-1).
# See, Ruiz-Caro, supra. and Lin, et al., Biochem. Pharmacol. 1994, 47, 171-174.
# [1] = Table 1B, for 50% protection in MT-2 cells, triplicate samples, NA for EC50 > CC50, read-out: EC50
# [2] = Table 1B, for 50% inhibition of MT-2 cell growth, triplicate samples
# [3] = Human immunodeficiency virus 1, IIIB, MT2
# [4] = Table 2b, derivatives of pyrimidine 11, NA for EC50 > CC50, read-out: EC50
# [5] = Human immunodeficiency virus 1, IIIB, MT2, Table 1a, heteroaryl derivatives, N/A read as no activity, read-out: EC50
# [6] = Homo sapiens, MT2, Table 1a, cytotoxicity, MT-2 cells, read-out: IC50
# [7] = Human immunodeficiency virus 1, IIIB, MT2, read-out: EC50
# [8] = Homo sapiens, MT2, Table of bicyclic-heteroaryl phenyl amines, cytotoxicity, MT-2 cell assays, read-out: IC50
# [9] = Human immunodeficiency virus 1, IIIB, MT2, Table of bicyclic-heteroaryl phenyl amines, MT-2 cell assays, read-out: EC50
smiles,measurement,setting,value
CCc1ccnc(Nc2ccc(Cl)c(OCC=C(C)C)c2)n1 [Compound 9p],EC50,IIIB strain of HIV-1; [1],16 nM
same,CC50,MT-2 human T-cells; [2],330 nM
"CC(C)=CCOc1cc(Nc2nc(CO)cs2)ccc1C [Compound 10b, (2-(4-Methyl-3-(3-methylbut-2-enyloxy)phenylamino)thiazol-4-yl)methanol]",EC50,IIIB strain of HIV-1; [3],13000 nM
same,IC50,"MT-2 human T-cells; Homo sapiens, MT2",23000 nM
"COc1ccc(Nc2nc(CO)cs2)cc1OCC=C(C)C [Compound 10c, (2-(4-Methoxy-3-(3-methylbut-2-enyloxy)phenylamino)thiazol-4-yl)methanol]",EC50,IIIB strain of HIV-1; [3],9000 nM
same,IC50,"MT-2 human T-cells; Homo sapiens, MT2",80000 nM
CNc1ccnc(Nc2ccc(C#N)c(OCC=C(C)C)c2)n1 [Compound 10d],EC50,IIIB strain of HIV-1; [1],5 nM
same,CC50,MT-2 human T-cells; [2],22 nM
COc1cc(OC)nc(Nc2ccc(C#N)c(OCC=C(C)C)c2)n1 [Compound 10h],EC50,IIIB strain of HIV-1; [1],160 nM
same,CC50,MT-2 human T-cells; [2],810 nM
C/C=C/COc1cc(Nc2ncccn2)ccc1Cl [Compound 11a],fold lower potency (higher EC50) than the corresponding DMA ether,IIIB strain of HIV-1,ca. 10 fold
same,EC50,IIIB strain of HIV-1; [4],2300 nM
same,CC50,"MT-2 human T-cells; Table 2b, MT-2 cells",31000 nM
Clc1ccc(Nc2ncccn2)cc1Oc1ccccc1 [Compound 11b],fold lower potency (higher EC50) than the corresponding DMA ether,IIIB strain of HIV-1,ca. 100 fold
same,EC50,IIIB strain of HIV-1; [4],13000 nM
same,CC50,"MT-2 human T-cells; Table 2b, MT-2 cells",30000 nM
C/C=C/COc1cc(Nc2nccc(OC)n2)ccc1Cl [Compound 11c],fold lower potency (higher EC50) than the corresponding DMA ether,IIIB strain of HIV-1,ca. 10 fold
same,EC50,IIIB strain of HIV-1; [4],89 nM
same,CC50,"MT-2 human T-cells; Table 2b, MT-2 cells",17000 nM
COc1ccnc(Nc2ccc(Cl)c(Oc3ccccc3)c2)n1 [Compound 11d],fold lower potency (higher EC50) than the corresponding DMA ether,IIIB strain of HIV-1,ca. 100 fold
same,EC50,IIIB strain of HIV-1; [4],2500 nM
same,CC50,"MT-2 human T-cells; Table 2b, MT-2 cells",38000 nM
"CC/C(C)=C\COc1cc(Nc2nccs2)ccc1Cl [Compound 18d, (E/Z)-N-(4-chloro-3-(3-methylpent-2-enyloxy)phenyl)thiazol-2-amine]",EC50,"IIIB strain of HIV-1; Table 3, thiazoles 18-23, N/A read as no activity, read-out: EC50",1000 nM
same,IC50,"MT-2 human T-cells; Table 3, cytotoxicity, MT-2 cells, read-out: IC50",18000 nM
"CC(C)=CCOc1cc(Nc2ncccn2)ccc1C [Compound 39b, N-(4-Methyl-3-(3-methylbut-2-enyloxy)phenyl)pyrimidin-2-amine]",EC50,IIIB strain of HIV-1; [5],2800 nM
same,IC50,MT-2 human T-cells; [6],78000 nM
"CC(C)=CCOc1cc(Nc2ncccn2)ccc1C#N [Compound 39h, N-(4-Cyano-3-(3-methylbut-2-enyloxy)phenyl)pyrimidin-2-amine]",EC50,IIIB strain of HIV-1; [7],17 nM
same,IC50,MT-2 human T-cells; [6],< 200 nM
same,CC50,MT-2 human T-cells; [2],36 nM
"CC(C)=CCOc1cc(Nc2nccc(N)n2)ccc1C [Compound 40b, N^2-(4-Methyl-3-(3-methylbut-2-enyloxy)phenyl)pyrimidin-2,4-diamine]",EC50,IIIB strain of HIV-1; [5],350 nM
same,IC50,MT-2 human T-cells; [6],6500 nM
"CC(C)=CCOc1cc(Nc2nccc(N)n2)ccc1Cl [Compound 40d, N^2-(4-Chloro-3-(3-methylbut-2-enyloxy)phenyl)pyrimidin-2,4-diamine]",EC50,IIIB strain of HIV-1; [5],75 nM
same,IC50,MT-2 human T-cells; [6],> 1000 nM
"CC(C)=CCOc1cc(Nc2nccc(C)n2)ccc1Cl [Compound 41d, N-(4-Chloro-3-(3-methylbut-2-enyloxy)phenyl)-4-methylpyrimidin-2-amine]",EC50,IIIB strain of HIV-1; [7],39 nM
same,IC50,MT-2 human T-cells; [6],< 200 nM
same,CC50,MT-2 human T-cells; [2],150 nM
"COc1ccnc(Nc2ccc(C)c(OCC=C(C)C)c2)n1 [Compound 42b, 4-Methoxy-N-(4-methyl-3-(3-methylbut-2-enyloxy)phenyl)pyrimidin-2-amine]",EC50,IIIB strain of HIV-1; [5],320 nM
same,IC50,MT-2 human T-cells; [6],41000 nM
"COc1ccnc(Nc2ccc(Cl)c(OCC=C(C)C)c2)n1 [Compound 42d, N-(4-Chloro-3-(3-methylbut-2-enyloxy)phenyl)-4-methoxypyrimidin-2-amine]",EC50,IIIB strain of HIV-1; [5],10 nM
same,IC50,MT-2 human T-cells; [6],9000 nM
CSc1ccnc(Nc2ccc(Cl)c(OCC=C(C)C)c2)n1 [Compound 48],EC50,"IIIB strain of HIV-1; Table 1a, heteroaryl derivatives, N/A read as no activity, read-out: EC50",180 nM
same,IC50,"MT-2 human T-cells; Table 1a, cytotoxicity, MT-2 cells, read-out: IC50",2800 nM
Cc1nccc(C(F)(F)F)n1 [Compound 49],EC50,IIIB strain of HIV-1; [5],65 nM
same,IC50,MT-2 human T-cells; [6],2500 nM
"O=C1Nc2ccc(Cl)cc2[C@@](C#CC2CC2)(C(F)(F)F)O1 [Efavirenz, efavirenz, reference compound]",EC50,IIIB strain of HIV-1; [7],2 nM
same,IC50,MT-2 human T-cells; [8],> 100 nM
same,CC50,MT-2 human T-cells; [2],> 100 nM
CC(C)=CCOc1cc(Nc2nccc3occc23)ccc1Cl [compound 54],EC50,IIIB strain of HIV-1; [9],6 nM
same,IC50,MT-2 human T-cells; [8],25000 nM
CC(C)=CCOc1cc(Nc2nccc3cc[nH]c23)ccc1Cl [compound 58],EC50,IIIB strain of HIV-1; [9],900 nM
same,IC50,MT-2 human T-cells; [8],9200 nM
